ChEMBL document CHEMBL1201862, “PubChem BioAssay data set” (2004)
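How tested: cells in 96-well plates exposed to compound for 48 hours at five concentrations. Here, GI50 denotes the concentration required for 50% inhibition of growth.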 Activity calls are given as the source filed them. Rule as the data show it: active = GI50 up to about 1.1 µM and inactive = higher.

Key:
Test in all cases: NCI tumour cell line growth inhibition, 48 h
SNB-75 = system: SNB-75
UO-31 = system: UO-31
NCI-H460 = system: NCI-H460
LOX IMVI = system: LOX IMVI
Malme-3M = system: Malme-3M
SK-MEL-5 = system: SK-MEL-5
M14 = system: M14
SK-OV-3 = system: SK-OV-3
HL-60 = system: HL-60
HT-29 = system: HT-29
HCC 2998 = system: HCC 2998
OVCAR-8 = system: OVCAR-8
ACHN = system: ACHN
SNB-19 = system: SNB-19
OVCAR-4 = system: OVCAR-4
SK-MEL-2 = system: SK-MEL-2
EKVX = system: EKVX
COLO 205 = system: COLO 205
HCT-15 = system: HCT-15

Row | SMILES | GI50 (SNB-75) | GI50 (UO-31) | GI50 (NCI-H460) | GI50 (LOX IMVI) | GI50 (Malme-3M) | GI50 (SK-MEL-5) | GI50 (M14) | GI50 (SK-OV-3) | GI50 (HL-60) | GI50 (HT-29) | GI50 (HCC 2998) | GI50 (OVCAR-8) | GI50 (ACHN) | GI50 (SNB-19) | GI50 (OVCAR-4) | GI50 (SK-MEL-2) | GI50 (EKVX) | GI50 (COLO 205) | GI50 (HCT-15) [µM]
1 | Nn1c(=O)n(Cc2ccccc2)n(-c2ccccc2)c1=O | 74.1 µM (inactive) | > 100 µM (inactive) | > 100 µM (inactive) | > 100 µM (inactive) | > 100 µM (inactive) | > 100 µM (inactive) | > 100 µM (inactive) | > 100 µM (inactive) | > 100 µM (inactive) | > 100 µM (inactive) | > 100 µM (inactive) | > 100 µM (inactive) | > 100 µM (inactive) | > 100 µM (inactive) | > 100 µM (inactive) | > 100 µM (inactive) |  |  | 
2 | CCOc1ccccc1NC(=O)CC1SC(Nc2ccc([N+](=O)[O-])cc2)=NC1=O (stereo unspecified) | 23.2 µM (inactive) | 17.2 µM (inactive) | 21.3 µM (inactive) | 18.5 µM (inactive) | 22.5 µM (inactive) | 16 µM (inactive) | 23.3 µM (inactive) |  | 32.6 µM (inactive) | 21.7 µM (inactive) | 16.4 µM (inactive) | 21.5 µM (inactive) | 17.3 µM (inactive) | 29.3 µM (inactive) | 11.6 µM (inactive) | 18.3 µM (inactive) | 27.5 µM (inactive) | 19.5 µM (inactive) | 
3 | O=C1CC(C(=O)N2CCCCC2)n2c(=O)n(-c3ccccc3)c(=O)n2C1 (stereo unspecified) | > 100 µM (inactive) | > 100 µM (inactive) | > 100 µM (inactive) | > 100 µM (inactive) | > 100 µM (inactive) | > 100 µM (inactive) | > 100 µM (inactive) | > 100 µM (inactive) |  | > 100 µM (inactive) | > 100 µM (inactive) | > 100 µM (inactive) | > 100 µM (inactive) | > 100 µM (inactive) |  |  | > 100 µM (inactive) | > 100 µM (inactive) | > 100
4 | CC(=O)c1ccc(NC(=O)/C(CC(=O)c2sc(-c3cccnc3)nc2C)=N/NC(N)=O)cc1 |  | 50.4 µM (inactive) | 27.1 µM (inactive) | > 100 µM (inactive) | > 100 µM (inactive) | > 100 µM (inactive) | > 100 µM (inactive) | > 100 µM (inactive) | 29.5 µM (inactive) | > 100 µM (inactive) | > 10 µM (inactive) | 56.5 µM (inactive) | 22.4 µM (inactive) | 53.6 µM (inactive) | > 100 µM (inactive) | > 100 µM (inactive) | 2.71 µM (inactive) | 18.2 µM (inactive) | 42.3
5 | CCOc1ccccc1NC(=O)C1=C(C)NC(C)=C(C(=O)Nc2ccccc2OCC)C1c1ccc2c(c1)OCO2 | 3.53 µM (inactive) | 21.8 µM (inactive) | 29.1 µM (inactive) | 34 µM (inactive) | 26.2 µM (inactive) | 11.1 µM (inactive) | 18.8 µM (inactive) | 18 µM (inactive) | 10.7 µM (inactive) | 37.2 µM (inactive) | 10.1 µM (inactive) | 47.3 µM (inactive) | 36.8 µM (inactive) | 95.9 µM (inactive) | 20.8 µM (inactive) | 18.7 µM (inactive) | 39.6 µM (inactive) | 18.2 µM (inactive) | 
6 | Cc1ccc(C(=O)/C=C2\Nc3c(c(=O)oc4ccccc34)N=C2NC23CC4CC(CC(C4)C2)C3)cc1 | 28.6 µM (inactive) | > 100 µM (inactive) | > 100 µM (inactive) | > 100 µM (inactive) | > 100 µM (inactive) | > 100 µM (inactive) | > 100 µM (inactive) | > 100 µM (inactive) | > 100 µM (inactive) | > 100 µM (inactive) | > 100 µM (inactive) | > 100 µM (inactive) | > 100 µM (inactive) | > 100 µM (inactive) |  | > 100 µM (inactive) | > 100 µM (inactive) | > 100 µM (inactive) | > 100
7 | CN(C)CCNC(=O)c1ccc(Cl)c2c(Nc3ccc(S(=O)(=O)N=C(N)N)cc3)c3ccccc3nc12 | > 10 µM (inactive) | 0.349 µM (active) | 1.63 µM (inactive) | 1.75 µM (inactive) |  | 8.04 µM (inactive) | 7.38 µM (inactive) |  | 1.7 µM (inactive) | 2.05 µM (inactive) | 8.17 µM (inactive) | 2.24 µM (inactive) | 4.22 µM (inactive) | 1.85 µM (inactive) | 1.87 µM (inactive) | 9.75 µM (inactive) | 11.4 µM (inactive) | 3.78 µM (inactive) | 5.02
8 | CCOC(=O)C(=O)Nc1ccccc1C(C)C | > 100 µM (inactive) | > 100 µM (inactive) | > 100 µM (inactive) |  | > 100 µM (inactive) | > 100 µM (inactive) | > 100 µM (inactive) | > 100 µM (inactive) | > 100 µM (inactive) | > 100 µM (inactive) | > 100 µM (inactive) | > 100 µM (inactive) | > 100 µM (inactive) | > 100 µM (inactive) | > 100 µM (inactive) | > 100 µM (inactive) | > 100 µM (inactive) | > 100 µM (inactive) | > 100
9 | C1=C2/CC[C@H](Sc3ccccc3)[C@H]2C2(CCCCC/1)OCCO2 | 27.9 µM (inactive) | 27 µM (inactive) | 63.4 µM (inactive) | 18.7 µM (inactive) | 28.5 µM (inactive) | 29.6 µM (inactive) | 27.9 µM (inactive) | 31 µM (inactive) | 22.2 µM (inactive) | 34.6 µM (inactive) | 22.3 µM (inactive) | 26.7 µM (inactive) | 35.6 µM (inactive) | 36.9 µM (inactive) |  | 16.9 µM (inactive) | 18.5 µM (inactive) | 19.5 µM (inactive) | 28.2
10 | COc1ccc(CN2C(=O)C(Cc3cc(OC)c(OC)c(C)c3OC)NC(=O)/C2=C/c2cc(OC)c(OC)c(C)c2OC)cc1 (stereo unspecified) | 33.5 µM (inactive) | 23.4 µM (inactive) | 9.98 µM (inactive) | 41.8 µM (inactive) | 22.6 µM (inactive) | 18 µM (inactive) | 32.1 µM (inactive) | 34 µM (inactive) | 18.3 µM (inactive) | 24.2 µM (inactive) | 23.6 µM (inactive) | 32.1 µM (inactive) | 31.7 µM (inactive) |  | 30.6 µM (inactive) | 19.3 µM (inactive) | 48.1 µM (inactive) | 22.8 µM (inactive) | 
11 | CC1=CP(=O)(OC(C)C)CC(C)=C1Cl (stereo unspecified) | > 100 µM (inactive) | > 100 µM (inactive) | > 100 µM (inactive) | > 100 µM (inactive) | > 100 µM (inactive) | > 100 µM (inactive) | 51.1 µM (inactive) | > 100 µM (inactive) | > 100 µM (inactive) | 64.4 µM (inactive) | > 100 µM (inactive) | > 100 µM (inactive) | > 100 µM (inactive) | > 100 µM (inactive) |  | > 100 µM (inactive) | > 100 µM (inactive) | > 100 µM (inactive) | 
12 | Brc1cc2c(cc1C1SCCS1)OCO2 | > 100 µM (inactive) | > 100 µM (inactive) | > 100 µM (inactive) | 81.7 µM (inactive) | > 100 µM (inactive) | > 100 µM (inactive) | > 100 µM (inactive) | > 100 µM (inactive) | 96.4 µM (inactive) | > 100 µM (inactive) | > 100 µM (inactive) | > 100 µM (inactive) | > 100 µM (inactive) | > 100 µM (inactive) | > 100 µM (inactive) | > 100 µM (inactive) | > 100 µM (inactive) |  | > 100
13 | Cn1nc(-c2ccccc2)c(C(=O)/C=C/c2ccc(F)cc2)c(N2CCOCC2)c1=O |  | 12.9 µM (inactive) | 24.4 µM (inactive) | 21.1 µM (inactive) |  | 14.8 µM (inactive) | 21.8 µM (inactive) | 32.7 µM (inactive) | 14.6 µM (inactive) | 15.9 µM (inactive) |  | 22.5 µM (inactive) | 22.5 µM (inactive) | 13.7 µM (inactive) |  |  | 25.7 µM (inactive) | 18.2 µM (inactive) | 23.6
14 | O=c1c2c([nH]c3cc4c(cc13)OCO4)-c1ccccc1C2 |  | 24.8 µM (inactive) | 22.3 µM (inactive) | 15.6 µM (inactive) | 23.2 µM (inactive) | 16 µM (inactive) | 20.6 µM (inactive) | 31.3 µM (inactive) | 27.7 µM (inactive) | 17.7 µM (inactive) | 24.4 µM (inactive) | 29.8 µM (inactive) | 19.4 µM (inactive) | 37.1 µM (inactive) | 33.3 µM (inactive) | 13.5 µM (inactive) | 29.6 µM (inactive) | 17 µM (inactive) | 19.3
15 | O=C(N[C@H]1CC2(C=C(I)C(=O)C(I)=C2)OC1=O)OCc1ccccc1 | 19.6 µM (inactive) | 18.2 µM (inactive) | 21.1 µM (inactive) | 16 µM (inactive) | 17.3 µM (inactive) | 27 µM (inactive) | 17.2 µM (inactive) | 34.8 µM (inactive) | 3.93 µM (inactive) | 17.5 µM (inactive) | 17.9 µM (inactive) | 17.3 µM (inactive) | 18.5 µM (inactive) | 21.8 µM (inactive) | 18.4 µM (inactive) |  | 14.3 µM (inactive) | 14.5 µM (inactive) | 20.9
16 | O=C1/C(=C/c2ccc([N+](=O)[O-])cc2)CCCc2ccccc21 | 83.4 µM (inactive) | > 100 µM (inactive) | > 100 µM (inactive) | > 100 µM (inactive) | > 100 µM (inactive) |  | > 100 µM (inactive) | > 100 µM (inactive) | > 100 µM (inactive) | > 100 µM (inactive) | > 100 µM (inactive) | > 100 µM (inactive) | > 100 µM (inactive) | 32.1 µM (inactive) | > 100 µM (inactive) | > 100 µM (inactive) | 48.6 µM (inactive) | > 100 µM (inactive) | 69.2
